Key:
PH1 domain of AFAP-110 [1] = biological target: T1, PH1 domain of AFAP-110 (Gallus gallus, UniProt Q90738); assay: Lipid binding assay (Far Western), GST-PH1; settings: 0.5 μg/ml fusion protein, lipids spotted on membrane
T1 construct: AFAP-110 contains two PH domains, one amino terminal (PH1) and the other carboxy terminal (PH2); made in house; host or cells: bacteria
Protocol: FIG. 5: The phospholipid binding properties of the PH domains of AFAP-110. A) Pleckstrin homology fusion proteins, GST-PH1, GST-PH2 and GST-DAPP1, were purified from bacteria by affinity chromatography. Phospholipids were spotted onto PVDF membranes as described in the methods section. The membranes were incubated overnight with 0.5 μg/ml • GST-PH1, GST-PH2 or GST-DAPP1. Washed membranes were incubated with anti-GST antibody and exposed to film.
B) Pleckstrin homology fusion protein, GST-PH1, was purified from bacteria by affinity chromatography. Two-fold changes in concentration (1.6 pg-100.0 pg) of phospholipids were spotted onto PVDF membranes as described in the methods section. The PIP arrays were incubated with 0.5 μg/ml fusion protein and probed with anti-GST antibody.
Pleckstrin homology (PH) fusion proteins GST-PH1, GST-PH2 and GST-DAPP1, were purified from bacteria by affinity chromatography. A Far Western Blot procedure was used for detecting the fusion protein binding to nitrocellulose immobilized phospholipids (Stevenson, J. Met. al., 1998); PIP strips and PIP arrays were purchased from Echelon, Inc. Overlay assays measured the relative amounts of GST-tagged fusion protein bound to spotted phospholipids. A plasmid encoding GST-DAPP1 previously shown to bind Ptdlns-3,4-P2 and Ptdlns-3,4,5-P3 (Dowler, S. et. al., 1999) was used as a control, kindly provided by Mark Lemmon (Lemmon, M. A., 2003). The membranes were wetted with methanol and then transferred to blocking solution composed of 3% BSA in TBS containing 1% Tween-20 (TBS-T) for 1 hour at 4° C. Membranes were incubated with 0.5 μg/ml each fusion proteins in TBS-T overnight at 4° C. Following incubation, membranes were rinsed three times with TBS-T, washed for 5 minutes and incubated at 4° C. for 1 hour with anti-GST antibody (1:20000 in TBS-T). Following the standard wash procedure, membranes were incubated at 4° C. for 30 minutes with peroxidase-conjugated secondary antibody (1:30000 in TBS-T). The washed membranes were incubated with chemiluminescence reagent and exposed to X-ray film.

PH1 domain of AFAP-110 [2] = biological target: T1, PH1 domain of AFAP-110; assay: Lipid sedimentation assay, GST-PH1; type: binding; settings: PC vesicles with lipid 19:1 (PC:PS 7:3), 0.025 mM GST fusion protein
Protocol: E) Lipid sedimentation assay was performed using pleckstrin homology fusion protein GST-PH1 as described in the methods sections. The GST-PH1 fusion protein has the capacity to co-sediment with several lipids containing vesicles as indicated in the pellet (P). Soluble fractions (S) containing unbound GST-PH1 purified fusion proteins were resolved by SDS-PAGE and detected by Coomassie stain.
A sedimentation assay was used to detect PH domain protein association with membrane phospholipids. Phospholipid stock solutions: 1 mg/ml L-α-Ptdlns-4-P, 1.0 mg/ml 1,2-dipalmitoyl-sn-glycero-3-Ptdlns-3-P, 0.1 mg/ml 1,2-dioleoyl-sn-glycero-3-Ptdlns-3,4-P2, and 1 mg/ml L-α-Ptdlns-4,5-P2 in chloroform:methanol:water (60:30:4). However, 10 mg/ml L-α-phosphatidylinositol, 0.1 mg/ml L-α Ptdlns-3-P, 0.2 mg/ml L-α-Ptdlns-3,4,5-P3, 10 mg/ml L-α-phosphatidylserine, and 10 mg/ml L-α-phosphatidylcholine in chloroform neat. All lipid stocks were purged with dry N2 and stored −20° C. The lipid vesicles were prepared as follows utilizing a sonication method. Briefly, in a heavy walled tube, PC and another stock phospholipid (e.g. Ptdlns, Ptdlns-3-P, Ptdlns-4-P, Ptdlns-3,4-P2, Ptdlns-3,5-P2, Ptdlns-3,4,5-P3, or PC) were combined in a 19:1 molar ratio; PC and PS were combined in a 7:3 molar ratio. Lipids were dried with a stream of N2 and traces of solvent were removed by vacuum and resuspended to 5.2 mM PC in buffer B [10 mM HEPES, pH 7.5, 50 mM KCl, 0.5 mM EGTA, and 1.0 mM MgCl2]. The resulting phospholipid sheets were sonicated to form vesicles. Samples were prepared to contain 1.7 mM vesicle PC and 0.025 mM recombinant GST fusion protein (DAPP1 or PH1) in buffer B. Samples were incubated 60 min and centrifuged with a Beckman Airfuge for 15 min at room temperature. 16% of the supernatant and 100% of the pellet from each sample was used for analysis by Laemmli method of SDS polyacrylamide gel electrophoresis. The gels were stained with SYPRO Orange or Coomassie Blue to visualize the proteins.

[3] = test system: AFAP-110 colocalization with cSrc and cSrc activation; assay: Immunofluorescence: PMA-induced colocalization of AFAP-110 with cSrc and cSrc activation in mouse embryo fibroblasts; type: cell-based; settings: 100 nM PMA 15 min
Protocol: FIG. 1: LY294002 blocks PMA-induced colocalization between AFAP-110 and cSrc, and subsequent cSrc activation. A) SYF cells transiently co-expressing GFP-AFAP-110 and cSrc were untreated (panels a-d), treated with 100 nM PMA for 15 minutes (panels e-h), or treated with PMA and either 6 μM bisindolylmaleimide (panels i-I), 10 μM LY294002 (panels m-p) or 50 nM Wortmannin (panels q-t). Fixed cells were immunolabeled with avian specific cSrc antibody, EC10 (1:500), and phospho-Src-family (Tyr416) (1:250) as described in the methods section. Secondary antibodies used were Atexa 546 anti-mouse for EC10 and Alexa 647 anti-rabbit for phospho-Src-family (Tyr416). A merged image was generated to determine colocalization between AFAP-110 and cSrc. Bars represent 20 μM.
D) Knockout MEFs (p85−/−) were transfected with GFP-AFAP-110 and cSrc. Fixed cells were immunolabeled with EC10 (1:500) and phospho-Src-family (Tyr416) (1:250) as described in the methods section. Secondary antibodies used were Alexa 546 anti-mouse for EC10 and Alexa 647 anti-rabbit for phospho-Src-family (Tyr416). Cells treated with 100 riM PMA for 15 minutes (panels e-h). Images were merged to determine colocalization of cSrc and GFP-AFAP-110. Bars represent 20 μm. Mouse embryo fibroblast cells that express the p85α isoform of the PI3K regulatory subunit (p85α+/+) were transfected with GFP-AFAP-110 and cSrc. Fixed cells were immunolabeled with EC10 (1:500) and phospho-Src-family (Tyr416) (1:250) as described in the methods section. Secondary antibodies used were Alexa 546 anti-mouse for EC10 and Alexa 647 anti-rabbit for phospho-Src-family (Tyr416). Images were merged to determine colocalization of cSrc and GFP-AFAP-110. Bars represent 20 μm.
(§1) SYF, SYF/cSrc, p85α+/+ and p85−/− cells were cultured in standard culture media. Transient transfections of SYF, SYF/cSrc, p85α+/+ cells for immunofluorescence were carried out using LipofectAMINE™ Reagent (Invitrogen) as per manufacturer's protocol. Briefly, Approximately 5.0-8.0×10^4 cells per well were transfected at 50-70% confluent on coverstips with 2-4 μg of plasmid DNA and incubated for 3-4 hours. Thirty-six hours after transfection, cells were serum starved for 12 hours, treated, and subsequently fixed and permeablized as previously described (Qian, Y. et. al., 1998). Cells were treated with a PKC activator, 100 nM PMA for 5 or 15 minutes or in combination with the following pretreatments; a PKC inhibitor, 6 μM bisindolylmaleimide [I] for six hours; or PI3K inhibitor, 10 μM LY294002 for six hours; 50 nM Wortmannin for 30 minutes; and/or a Src family inhibitor, 5 μM PP1 for six hours. For actin labeling, a 1:500 dilution of TRITC-phalloidin was used as labeled in the figures. Primary antibody concentrations used were diluted in 5% Bovine Serum Albumin (BSA) dissolved in 1× phosphate-buffered saline (PBS): EC10 mAb-1:500; Phospho-Src Family (Y416) pAb-1:250; Anti-PI-3,4,5-P3 mAb-1:100; Anti-AFAP-110 (F1)pAb-1:1000; Anti-cSrc pAb-1:500; Anti-flag-1:1000. All fluorescent secondary and phalloidin antibodies were diluted 1:200 in 5% BSA, and are labeled according to figure legends. Cells were washed and mounted on slides with Fluoromount-G (Fisher). A Zeiss LSM 510 confocal microscope was used to scan images of about 1 μM in thickness. To prevent cross-contamination between the different fluorochromes, each channel was imaged sequentially using the multitrack recording module before merging the images. For all figures, representative cells are shown (>100 cells examined per image shown).
We utilized SYF cell lines as a model system, mouse embryo fibroblasts engineered to contain null mutations in the c-src,fyn, and c-yes genes (Klinghoffer, R. A. et. al., 1999). The cells were transiently co-transfected with constructs that encode cSrc and GFP-tagged AFAP-110, as previously described (Gatesman, A. et. al., 2004). […]

cSrc = assay: Immunofluorescence: translocation of cSrc from the perinuclear region to the cell periphery; type: cell-based, mouse; settings: SYF cells, 100 nM PMA with 6 μM bisindolylmaleimide or 10 μM LY
Protocol: FIG. 2: Inhibition of PI3K blocks translocation of cSrc from the perinuclear region of mouse embryo fibroblast in response to PMA treatment. SYF and p85−/− null cells were transiently transfected with cSrc and labeled for avian cSrc using EC10, an avian-specific monoclonal antibody (1:500). EC10 was visualized with anti-mouse Atexa Fluor 488 (false colored red for consistency). Cells treated with 100 nM PMA (panel b) induced translocation of cSrc to the cell periphery as indicated by the arrows. However, cells treated with 100 nM PMA in conjunction with 6 μM bisindolylmaleimide (panel c) or 10 μM LY (panel d) blocked the translocation of cSrc as indicated by the arrows. […] (n=nucleus) Bars represent 20 μM.
as §1, with “All fluorescent secondary and phalloidin antibodies were diluted 1:200 in 5% BSA, and are labeled according to figure legends. Cells were washed and mounted on slides with Fluoromount-G (Fisher). A Zeiss LSM 510 confocal microscope was used to scan images of about 1 μM in thickness. To prevent cross-contamination between the different fluorochromes, each channel was imaged sequentially using the multitrack recording module before merging the images. For all figures, representative cells are shown (>100 cells examined per image shown).” left out

PI3K = assay: Immunofluorescence of Ptdlns-3,4,5-P3 production in SYF/cSrc cells; type: cell-based, mouse; settings: for PMA-induced Ptdlns-3,4,5-P3 production: 100 nM PMA with 6 μM bisindolylmaleimide [I], 50 nM wortmannin, LY294002 or 5 μM PP1
Protocol: SYF/cSrc cells were serum-starved for 24 hours. Cells stimulated with 10% serum (panels c-f), 100 nM PMA for 5 (panels g-h), or 15 minutes (panels i-j); as well as treated with 100 nM PMA in combination with 6 μM bisindolylmaleimide [I] (panels k-I) or 50 nM wortmannin (panels m-n). Cells treated with 100 nM PMA in combination with 5 μM PP1 (panel o-p) and Ptdlns-3,4,5-P3 levels evaluated. Cells were immunolabeled with a PI-3,4,5-P3-specific antibody (Echelon, Inc.;1:100) and TRITC-phalloidin (1:500). Secondary antibody for anti-PI-3,4,5-P3 (1:100) was Alexa IgM 647 anti-mouse (1:200). Bars represent 20 μm.
as §1
Ptdlns-3,4,5-P3 production was measured using the anti-Ptdlns-3,4,5-P3 antibody (Echelon, inc.) for analysis by immunofluorescence and contrasted with stress filament integrity, measured using TRITC-phalloidin as previously described (Chen, R. et. al., 2002; Hama, H. et. al., 2004). SYF/cSrc cells were left untreated or treated with serum as controls for PI3K activation. […] In addition, SYF/cSrc cells were stimulated with PMA for 5 or 15 minutes.

[4] = SYF cells co-expressing GFP-AFAP-110 and cSrc, pretreatment 6 μM bisindolylmaleimide, 10 μM LY294002 or 50 nM Wortmannin

T1 sequence (Q90738 153-249 limits assumed): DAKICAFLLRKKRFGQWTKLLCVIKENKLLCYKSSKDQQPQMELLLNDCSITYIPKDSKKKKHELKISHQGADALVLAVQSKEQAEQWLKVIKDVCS

| Compound | binding of GST-PH1 to immobilized phospholipid (far western) (PH1 domain of AFAP-110 [1]) | binding (co-sedimentation) of GST-PH1 to lipid vesicles containing the lipid (PH1 domain of AFAP-110 [2]) | further results |
| --- | --- | --- | --- |
| CCCCCCCCCCCCCCCC(=O)OC[C@H](COP(=O)(O)O[C@@H]1[C@H](O)[C@H](OP(=O)(O)O)[C@@H](O)[C@H](O)[C@H]1O)OC(=O)CCCCCCCCCCCCCCC [Ptdlns-3-P, phosphatidylinositol-3-phosphate] | strong binding | did not bind |  |
| phosphatidylinositol | did not bind |  |  |
| CN(C)CCCn1cc(C2=C(c3c[nH]c4ccccc34)C(=O)NC2=O)c2ccccc21 [bisindolylmaleimide [I]] |  |  | PMA-induced cSrc activation (phospho-Src-family Tyr416) [3, 4]: blocked; PMA-induced colocalization of AFAP-110 with cSrc [3, 4]: blocked; PMA-induced associated morphological changes ([3]; SYF cells, pretreatment 6 μM bisindolylmaleimide or 10 μM LY294002): blocked; PMA-induced translocation of cSrc from the perinuclear region to the cell periphery (cSrc): blocked; PMA-induced Ptdlns-3,4,5-P3 production (PI3K): blocked |
| phosphatidylserine | had the capacity to recognize | has the capacity to bind |  |
| Phosphatidylethanolamine | not recognized |  |  |
| phosphatidic acid | better than any other phospholipid analyzed |  |  |
| phosphatidylinositol-4-phosphate [Ptdlns-4-P] | strong binding | has the capacity to bind |  |
| phosphatidylinositol-5-phosphate [Ptdlns-5-P] | strong binding | has the capacity to bind |  |
| Cc1ccc(-c2nn(C(C)(C)C)c3ncnc(N)c23)cc1 [PP1] |  |  | PMA-directed changes in stress filaments and cell shape (PI3K; 100 nM PMA with 5 μM PP1): impeded; PMA-induced Ptdlns-3,4,5-P3 production (PI3K): did not block |
| Lysophosphatidic acid | not recognized |  |  |

— patent US20080234232A1, “Methods and compositions for targeting AFAP” (priority 2007, published 2008)
